Results: patent US9962427B2, “Treatment of right ventricular dysfunction due to pressure overload” (OTTAWA HOSPITAL RESEARCH INSTITUTE, priority 2016, dated 2018)

Experiments:
rats = experiment: In vivo growth reversal analysis (ECHO, HW:BW, CD31 capillary density) after 2 week delivery and follow-on; parameters: species or system rat; conditions: for ventricle wall thickness at 2 weeks: CT-1 6 μg/kg/hr or PE 10 mg/kg/day for 2 weeks
Source text: FIGS. 3A, 3B, and 3C. […] Arrows (in upper panels) point to myocardial wall (RVLW). Dotted lines (in lower panels) show inner ventricle chambers.
FIGS. 4A and 4B. Beneficial/physiologic cardiac adaptive compensation and reversion to baseline cardiac dimensions is observed upon 2 weeks of hCT1 administration in vivo followed by hCT1 withdrawal for 4 weeks. Identical follow-on procedure and analysis as conducted in FIG. 3 above. FIG. 4A Whole hearts and Hematoxylin & Eosin (H & E) stained sections and quantification of the heart weight to body weight (HW:BW) ratio 6 weeks post-treatment with hCT1 or PE.
CT-1 was tested in vivo to determine whether its administration would induce a myocardial adaptive remodeling characteristic of physiologic compensation (FIGS. 3A, 3B, and 3C). Osmotic minipumps containing PBS control (Ctrl) or hCT1 (6 μg/kg/hr) or Isoproterenol (ISO, 1 mg/kg/day) were implanted subcutaneously in rats. ISO is a beta-adrenergic receptor agonist and continuous infusion with ISO in rats is known to induce pathological cardiac hypertrophy and cardiomyocyte damage (in both the right and left ventricles) which progresses to heart failure (Morisco et al (2001) J Mol Cell Cardiol 33:561-573 and Grimm et al (1998) Cardiovascular Research 37:91-100). After 2 weeks of treatment, M-mode ECHO analysis was used to assess myocardial structure/function (FIG. 3A). In this model, an increased right ventricle lateral wall (RVLW) thickness indicates the presence of myocardiocytes growth, and an increased ratio of the right to left ventricle internal diameters (RVID/LVID) is an indicator of pathologic hypertrophy. An increased RVLW thickness but constant or reduced RVID:LVID ratio is an indicator of adaptive compensatory RV remodeling. Both hCT1 and ISO induced a significant increase in RVLW thickness (12% and 32% fold increase, respectively) compared to control rats (n=3; * and **, P<0.05). […] An in vivo growth reversal analysis was also conducted. Following a 2 week delivery of CT-1 protein (6 μg/kg/hr) or PE (10 mg/kg/day) as the pathologic control in this case, animals were then assessed for cardiac structure/function at a 6 week follow-on period. […] Collectively, these studies support the contention that CT-1 elicits a reversible physiologic cardiac adaptive compensation.

NFAT = NFAT luciferase reporter adenovirus (Nfat-AdV) in cardiomyocytes; type: cell-based
Method: (§1) FIGS. 6A, 6B, and 6C. Stimulation with hCT1 causes sustained activation of NF-κB and Stat3 with limited activation of Mef2, as well as limited Nfat activation; the latter two indices are distinct expression patterns from pathologic hypertrophic stimulation. FIG. 6A Primary neonatal cardiomyocytes were transfected with luciferase reporter plasmids (NF-κB or Mef2), as indicators of hypertrophic activity. Luciferase activity was measured after treatments for 24 hrs with: hCT1 (0.5 nM), PE (100 μM), or procaspase 3 activating compound 1, PAC-1 (25 μM) (left). Treatments at early timepoints (30 min, 1 hr, and 3 hr) were also conducted for hCT1 (right). FIG. 6B Primary neonatal cardiomyocytes were transfected with a luciferase reporter plasmid for Stat3. Luciferase activity was measured after treatments for 24 hrs with: hCT1 (0.5 nM), PE (100 μM), or procaspase 3 activating compound 1, PAC-1 (25 μM) (left) and at earlier time points (right). FIG. 6C Primary neonatal cardiomyocytes were infected with a luciferase-based Nfat reporter Adenovirus (Nfat-AdV). Luciferase activity was measured after treatments for 24 hrs with: hCT1 (0.5 nM), PE (100 μM), or procaspase 3 activating compound 1, PAC-1 (25 μM) (left) and at earlier time points (right)
Applicants tested this supposition by infecting cardiomyocytes with an NFAT luciferase reporter linked to an Adenovirus (AdV) backbone (FIG. 6C). Cardiomyocytes were infected at a […] (MOI) of 20 with Nfat-AdV for 24 hours prior to stimulation with hCT1 (0.5 nM), PE (100 μM), or procaspase 3 activating compound 1, PAC-1 (25 μM). As an initial positive control, co-infection of NFAT-AdV with activated Calcineurin-AdV (a phosphatase and potent activator of NFAT signalling) caused a significant increase in NFAT activity (n=4; *, P<0.05). […] Although the exact mechanism of inhibition is unknown, Applicant has shown CT-1 engaging a PI3K signalling pathway and it would be reasonable to postulate that phosphorylation of NFAT by CT-1/PI3K signalling would limit NFAT activity.

Mef2 = Mef2 luciferase reporter in primary neonatal cardiomyocytes; type: cell-based; conditions: hCT1 0.5 nM; for Mef2 activation after 24 hrs: PE 100 μM, PAC-1 25 μM
Method: as §1
The signaling pathways that CT-1 engages in mediating physiologic adaptive compensatory remodeling were examined. The applicants predicted that cardiomyocyte adaptive remodeling mediated by CT-1 results (in part) from the induction of a specific transcriptional program, which is distinct from that of pathologic hypertrophic response. To address this hypothesis, the applicants tested the activity of two well-known transcription factor families that have been linked to both physiologic and pathologic cardiomyocyte growth, the Mef2 (Kolodziejczyk et al. 1999 Curr Biol. 9, 1203-1206; Kim et al. 2008, J Clin Invest. 118, 124-132.) and the NF-κB family (Gordon et al. 2011, Circ Res. 108, 1122-1132). Primary neonatal cardiomyocytes were transfected with luciferase reporter plasmids (NF-κB and Mef2) to be used as a read out of transcriptional activity. Luciferase activity was determined after treatments for 24 hrs with: hCT1 (0.5 nM), PE (100 μM), or procaspase 3 activating compound 1, PAC-1 (25 μM). […] This pattern of transcription factor activation was distinct from that induced by PE and by the caspase 3 specific activating compound PAC-1.

[1] = 2 week delivery, 6 week follow-on

Molecule	RVID/LVID ratio at 6 weeks post-treatment compared to control rats (rats; [1])	heart weight to body weight ratio at 6 weeks post-treatment (rats; [1])	wall thickness / cardiac dimensions at 6 weeks post-treatment (rats; [1])	cardiac capillary density (CD31 immunostained right ventricle sections) (rats; 6 weeks post-treatment, compared to CT-1 treated and control animals)	ventricle wall thickness at 2 weeks (rats)	NFAT activity compared to baseline levels (NFAT; as early as 3 hours, up to 24 hours, PE 100 μM, PAC-1 25 μM)	Mef2 activation after 24 hrs (Mef2)	NFAT activity compared to baseline levels, CT-1 alone (NFAT; 30 minutes, 1 hour, and 3 hours)	NFAT activity after CT-1 pre-treatment compared to PE or PAC-1 alone (NFAT; 3 hours and 24 hours)	Mef2 luciferase activity at 1 hr and 3 hr (Mef2)
CNC[C@H](O)c1cccc(O)c1 [PE, Phenylephrine]	maintained their increased RVID/LVID ratio	increased heart weight to body weight ratio	retaining the substantial increase in wall thickness	significant decrease in cardiac capillary density	increase in (both) ventricle wall thickness	significant increase of NFAT activity	significant activation of Mef2	–	–	–
hCT1: Recombinant human CT1 protein; 201 amino acid sequence, GenBank Accession Nos AAD12173 and AAA85229 (human) (protein, UniProt Q16619 1-201, looked up) Cardiotrophin-1: MSRREGSLEDPQTDSSVSLLPHLEAKIRQTHSLAHLLTKYAEQLLQEYVQLQGDPFGLPSFSPPRLPVAGLSAPAPSHAGLPVHERLRLDAAALAALPPLLDAVCRRQAELNPRAPRLLRRLEDAARQARALGAAVEALLAALGAANRGPRAEPPAATASAASATGVFPAKVLGLRVCGLYREWLSRTEGDLGQLLPGGSA	–	–	complete return to baseline cardiac dimensions for wall thickness	–	increase in (both) ventricle wall thickness	–	only NF-κB transcriptional activity was sustained	slight, yet significant, decrease in NFAT activity	significantly decreased NFAT activity	significant activation
